Reference: paper PMC12527922, “Cocaine chemogenetics blunts drug-seeking by synthetic physiology” (Nature, 2025)
“And” between values parts separate entries of the source, which are not always exact repeats. Identical values can stand only once.

System: GRABDA dopamine sensor, nucleus accumbens shell
Experiment: Fibre photometry of dopamine (GRABDA) after cocaine administration
Format: in vivo, rat
Parameters: GRABDA dopamine response per dose (sheet 4i), individual rats / GRABDA dopamine response per dose (sheet 4i), Mean: unit not given here
Conditions: for GRABDA dopamine signal, Mean / GRABDA dopamine signal, individual rats: Cocaine 5 mg/kg; for GRABDA dopamine signal, AVG: ED Fig. 9a, Cocaine 10 mg/kg
Procedure: Male Sprague–Dawley rats were anaesthetized with isoflurane (1.5–2%) and then placed onto a stereotaxic frame (Kopf) and injected with AAV5-Syn::coca-5HT3-IRES-mCherry (0.5 µl, 4.95 × 10^12 vg per ml) into the LHb (AP, −3.8 mm relative to bregma; ML, ±0.7 mm; DV, −5.25 mm, at a 10° angle) (n = 5) or underwent sham surgery (n = 6). Rats were also implanted with an optic fibre (400 µm core, 0.50 NA) attached to a 2.5 mm diameter ferrule (Thorlabs) directed to the medial shell of the nucleus accumbens (AP, +1.7 mm relative to bregma; ML, ±0.9 mm; DV, −7.0 mm). To ensure that AAV9-Syn::GRABDA1m was transduced at the direct vicinity of the fibre tip, we coated the fibre with the AAV (0.4 µl, 5 × 10^12 vg per ml) using a silk fibroin film before its implantation as previously described.
For fibre photometry, dopamine (GRABDA) dynamics were measured using a Tucker-Davis Technologies (TDT) system in anaesthetized rats. […] Data were acquired at 1 kHz. On the testing day, rats were anaesthetized (isoflurane: induction, 5%; maintenance, 3%) and attached to a photometry patch cord (400 μm core, 0.50 NA). GRABDA signals were then collected for 5 min, followed by a saline i.p. injection, and additional GRABDA signal measurement for 20 min. Cocaine was then injected i.p. at 20, 10 or 5 mg per kg, and the GRABDA signal was measured for an additional 20 min. Each rat was tested three times with cocaine doses administered in randomized order. Fibre photometry analyses were performed using scripts in MATLAB R2023b (MathWorks) based on codes from the Barker (https://github.com/djamesbarker)[64] and Lerner (https://github.com/talialerner/)[65] laboratories. […] The GRABDA signal was normalized to values at 1 min before saline or cocaine injection and shown as the average z-scored activity per min. […] Fibre photometry data are represented as mean ± s.e.m. Statistical analyses were performed using Prism 10 (GraphPad).

SMILES: COC(=O)[C@H]1[C@@H](OC(=O)c2ccccc2)C[C@@H]2CC[C@H]1N2C [cocaine]
- GRABDA dopamine response per dose (sheet 4i), Mean (Coca-5HT3 rats, Dose 5 mg/kg): -63058.3
- GRABDA dopamine response per dose (sheet 4i), individual rats (Coca-5HT3 rats, Dose 5 mg/kg): -172031 and 384223 and 532188 and -477527 and -582145
- GRABDA dopamine response per dose (sheet 4i), Mean (Coca-5HT3 rats, Dose 10 mg/kg): 347550
- GRABDA dopamine response per dose (sheet 4i), individual rats (Coca-5HT3 rats, Dose 10 mg/kg): 537591 and 787483 and 404806 and 428321 and -420452
- GRABDA dopamine response per dose (sheet 4i), Mean (Coca-5HT3 rats, Dose 20 mg/kg): 29421.8
- GRABDA dopamine response per dose (sheet 4i), individual rats (Coca-5HT3 rats, Dose 20 mg/kg): -332785 and -760751 and 326619 and 420379 and 493647
- GRABDA dopamine signal, Mean (Time 0, sheet 4g, 6 rats): 0
- GRABDA dopamine signal, Mean (Time 0, sheet 4h, 5 rats): 0.3508
- GRABDA dopamine signal, Mean (Time 1, sheet 4g, 6 rats): 0.02583
- GRABDA dopamine signal, Mean (Time 1, sheet 4h, 5 rats): 0.1222
- GRABDA dopamine signal, Mean (Time 2, sheet 4g, 6 rats): 0.2299
- GRABDA dopamine signal, Mean (Time 2, sheet 4h, 5 rats): 0.04413
- GRABDA dopamine signal, Mean (Time 3, sheet 4g, 6 rats): 0.7586
- GRABDA dopamine signal, Mean (Time 3, sheet 4h, 5 rats): 0.02999
- GRABDA dopamine signal, individual rats (Time 4, sheet 4g): 0.7973 and 0.9252 and 2.611 and 0.5744 and 0.4159 and 0.8485
- GRABDA dopamine signal, Mean (Time 4, sheet 4g, 6 rats): 1.0287
- GRABDA dopamine signal, Mean (Time 4, sheet 4h, 5 rats): -0.002503
- GRABDA dopamine signal, individual rats (Time 5, sheet 4g): 1.23 and 1.254 and 3.178 and 1.255 and 0.28 and 0.3357
- GRABDA dopamine signal, Mean (Time 5, sheet 4g, 6 rats): 1.255
- GRABDA dopamine signal, Mean (Time 5, sheet 4h, 5 rats): 0.4003
- GRABDA dopamine signal, individual rats (Time 6, sheet 4g): 1.399 and 1.386 and 3.378 and 1.497 and 0.2966 and 0.5676
- GRABDA dopamine signal, Mean (Time 6, sheet 4g, 6 rats): 1.4208
- GRABDA dopamine signal, Mean (Time 6, sheet 4h, 5 rats): 0.7136
- GRABDA dopamine signal, individual rats (Time 7, sheet 4g): 1.395 and 1.753 and 3.423 and 2.3 and 0.321 and 1.639
- GRABDA dopamine signal, Mean (Time 7, sheet 4g, 6 rats): 1.805
- GRABDA dopamine signal, Mean (Time 7, sheet 4h, 5 rats): 0.8408
- GRABDA dopamine signal, individual rats (Time 8, sheet 4g): 1.672 and 1.969 and 3.288 and 2.2806 and 0.5769 and 1.2461
- GRABDA dopamine signal, Mean (Time 8, sheet 4g, 6 rats): 1.839
- GRABDA dopamine signal, Mean (Time 8, sheet 4h, 5 rats): 0.8223
- GRABDA dopamine signal, individual rats (Time 9, sheet 4g): 1.777 and 2.101 and 2.8254 and 2.6993 and 0.4303 and 1.7436
- GRABDA dopamine signal, Mean (Time 9, sheet 4g, 6 rats): 1.93
- GRABDA dopamine signal, Mean (Time 9, sheet 4h, 5 rats): 0.8303
- GRABDA dopamine signal, individual rats (Time 10, sheet 4g): 1.667 and 2.313 and 2.507 and 2.586 and 1.167 and 0.977
- GRABDA dopamine signal, Mean (Time 10, sheet 4g, 6 rats): 1.869
- GRABDA dopamine signal, Mean (Time 10, sheet 4h, 5 rats): 0.9165
- GRABDA dopamine signal, individual rats (Time 11, sheet 4g): 1.6386 and 2.495 and 2.468 and 3.874 and 0.606 and 2.597
- GRABDA dopamine signal, Mean (Time 11, sheet 4g, 6 rats): 2.28
- GRABDA dopamine signal, Mean (Time 11, sheet 4h, 5 rats): 0.6597
- GRABDA dopamine signal, individual rats (Time 12, sheet 4g): 1.957 and 2.546 and 2.0788 and 2.652 and 0.8197 and 2.605
- GRABDA dopamine signal, Mean (Time 12, sheet 4g, 6 rats): 2.11
- GRABDA dopamine signal, Mean (Time 12, sheet 4h, 5 rats): 0.5883
- GRABDA dopamine signal, individual rats (Time 13, sheet 4g): 1.603 and 2.238 and 1.918 and 2.979 and 1.082 and 2.101
- GRABDA dopamine signal, Mean (Time 13, sheet 4g, 6 rats): 1.987
- GRABDA dopamine signal, Mean (Time 13, sheet 4h, 5 rats): 0.5593
- GRABDA dopamine signal, individual rats (Time 14, sheet 4g): 1.849 and 2.2953 and 1.648 and 2.627 and 1.351 and 2.787
- GRABDA dopamine signal, Mean (Time 14, sheet 4g, 6 rats): 2.093
- GRABDA dopamine signal, Mean (Time 14, sheet 4h, 5 rats): 0.3765
- GRABDA dopamine signal, individual rats (Time 15, sheet 4g): 1.345 and 2.273 and 1.221 and 3.749 and 1.032 and 2.415
- GRABDA dopamine signal, Mean (Time 15, sheet 4g, 6 rats): 2.006
- GRABDA dopamine signal, Mean (Time 15, sheet 4h, 5 rats): 0.2825
- GRABDA dopamine signal, individual rats (Time 16, sheet 4g): 1.5856 and 2.161 and 1.005 and 2.897 and 1.378 and 2.623
- GRABDA dopamine signal, Mean (Time 16, sheet 4g, 6 rats): 1.942
- GRABDA dopamine signal, Mean (Time 16, sheet 4h, 5 rats): 0.2717
- GRABDA dopamine signal, individual rats (Time 17, sheet 4g): 1.282 and 2.066 and 0.8019 and 2.5132 and 1.107 and 1.846
- GRABDA dopamine signal, Mean (Time 17, sheet 4g, 6 rats): 1.6029
- GRABDA dopamine signal, Mean (Time 17, sheet 4h, 5 rats): 0.2019
- GRABDA dopamine signal, individual rats (Time 18, sheet 4g): 1.176 and 1.956 (2×) and 0.485 and 2.977 and 1.512
- GRABDA dopamine signal, Mean (Time 18, sheet 4g, 6 rats): 1.677
- GRABDA dopamine signal, Mean (Time 18, sheet 4h, 5 rats): 0.2838
- GRABDA dopamine signal, individual rats (Time 19, sheet 4g): 1.43 and 1.847 and 0.2727 and 2.8958 and 1.19 and 1.677
- GRABDA dopamine signal, Mean (Time 19, sheet 4g, 6 rats): 1.552
- GRABDA dopamine signal, Mean (Time 19, sheet 4h, 5 rats): 0.4407
- GRABDA dopamine signal, individual rats (Time -1, sheet 4g): 0.1891 and 0.00306 and 0.03687 and -0.1715
- GRABDA dopamine signal, Mean (Time -1, sheet 4g, 6 rats): 0.08979
- GRABDA dopamine signal, Mean (Time -1, sheet 4h, 5 rats): -0.1218
- GRABDA dopamine response per dose (sheet 4i), Mean (Control rats, Dose 5 mg/kg): 575620
- GRABDA dopamine response per dose (sheet 4i), individual rats (Control rats, Dose 5 mg/kg): 1106356 and 625102 and 499430 and 534300 and 481000 and 207530
- GRABDA dopamine response per dose (sheet 4i), Mean (Control rats, Dose 10 mg/kg): 513482
- GRABDA dopamine response per dose (sheet 4i), individual rats (Control rats, Dose 10 mg/kg): 1063773 and 869765 and 258346 and 365520 and 172520 and 350970
- GRABDA dopamine response per dose (sheet 4i), Mean (Control rats, Dose 20 mg/kg): 564660
- GRABDA dopamine response per dose (sheet 4i), individual rats (Control rats, Dose 20 mg/kg): 543312 and 940737 and 382973 and 597550 and 499710 and 423680
- GRABDA dopamine signal, AVG (Time 0): 0.01595
- GRABDA dopamine signal, AVG (Time 1): 0.04899
- GRABDA dopamine signal, AVG (Time 2): 0.1402
- GRABDA dopamine signal, AVG (Time 3): 0.549
- GRABDA dopamine signal, AVG (Time 4): 0.7571
